# Assay: Asthma Quality of Life Questionnaire with Standardized Activities (AQLQ(S))
# Assay type: in vivo, human
# Description: The AQLQ(S) is a self-administered patient reported outcome to measure the functional impairments that are most troublesome to adolescents and adults ≥12 years of age as a result of their asthma.
# Asthma Quality of Life Questionnaire with Standardized Activities (AQLQ(S)) self-administered (≥12 years)
# The AQLQ(S) was designed as a self-administered patient reported outcome to measure the functional impairments that are most troublesome to adolescents and adults ≥12 years of age as a result of their asthma. The instrument is comprised of 32 items, each rated on a 7-point Likert scales from 1 to 7. The AQLQ(S) has 4 domains. The domains and the number of items in each domain are as follows: • Symptoms (12 items) • Activity limitation (11 items) • Emotional function (5 items) • Environmental stimuli (4 items)
# A global score is calculated ranging from 1 to 7 and a score by domain. Higher scores indicate better quality of life. […] Patients were to complete the questionnaire in an electronic diary during on-site visits.
# Secondary endpoints included pre-bronchodilator FEV1 change from baseline at EOT, ACQ-5 score change from baseline, and AQLQ score change from baseline. Other secondary and exploratory endpoints are described in Table 2.
# [1] = 400 mg TID, observed/LOCF imputed, n=53, mITT
structure (smiles),measurement,setting,value
"CC(C)(C=C(C#N)C(=O)N1CCC[C@@H](n2nc(-c3ccc(Oc4ccccc4)cc3F)c3c(N)ncnc32)C1)N1CCN(C2COC2)CC1 (mixture of isomers) [rilzabrutinib, (R)-2-[3-[4-amino-3-(2-fluoro-4-phenoxy-phenyl)pyrazolo[3,4-d]pyrimidin-1-yl]piperidine-1-carbonyl]-4-methyl-4-[4-(oxetan-3-yl)piperazin-1-yl]pent-2-enenitrile]","AQLQ global score change from baseline at Week 12, LS Mean Diff vs. placebo","400 mg TID, mITT, all others than low EOS and low FeNO",0.35
same,"AQLQ global score change from baseline at Week 12, LS Mean Diff vs. placebo","400 mg TID, mITT, atopic medical conditions: no",0.37
same,"AQLQ global score change from baseline at Week 12, LS Mean Diff vs. placebo","400 mg TID, mITT, atopic medical conditions: yes",0.13
same,"AQLQ global score change from baseline at Week 12, LS Mean Diff vs. placebo","400 mg TID, mITT, background ICS dose high",0.26
same,"AQLQ global score change from baseline at Week 12, LS Mean Diff vs. placebo","400 mg TID, mITT, background ICS dose medium",0.31
same,"AQLQ global score change from baseline at Week 12, LS Mean Diff vs. placebo","400 mg TID, mITT, baseline ACQ-5 score >2",0.38
same,"AQLQ global score change from baseline at Week 12, LS Mean Diff vs. placebo","400 mg TID, mITT, baseline ACQ-5 score ≤2",0.29
same,"AQLQ global score change from baseline at Week 12, LS Mean Diff vs. placebo","400 mg TID, mITT, baseline BMI <25 kg/m^2",0.56
same,"AQLQ global score change from baseline at Week 12, LS Mean Diff vs. placebo","400 mg TID, mITT, baseline BMI ≥25-<30 kg/m^2",0.47
same,"AQLQ global score change from baseline at Week 12, LS Mean Diff vs. placebo","400 mg TID, mITT, baseline BMI ≥30 kg/m^2",−0.01
same,"AQLQ global score change from baseline at Week 12, LS Mean Diff vs. placebo","400 mg TID, mITT, baseline FEV1 reversibility <12%",0.12
same,"AQLQ global score change from baseline at Week 12, LS Mean Diff vs. placebo","400 mg TID, mITT, baseline FEV1 reversibility ≥12%",0.32
same,"AQLQ global score change from baseline at Week 12, LS Mean Diff vs. placebo","400 mg TID, mITT, baseline FeNO <25 ppb",0.15
same,"AQLQ global score change from baseline at Week 12, LS Mean Diff vs. placebo","400 mg TID, mITT, baseline FeNO <35 ppb",0.18
same,"AQLQ global score change from baseline at Week 12, LS Mean Diff vs. placebo","400 mg TID, mITT, baseline FeNO ≥25 ppb",0.44
same,"AQLQ global score change from baseline at Week 12, LS Mean Diff vs. placebo","400 mg TID, mITT, baseline FeNO ≥35 ppb",0.45
same,"AQLQ global score change from baseline at Week 12, LS Mean Diff vs. placebo","400 mg TID, mITT, baseline IgA <median 2190 mg/L",0.50
same,"AQLQ global score change from baseline at Week 12, LS Mean Diff vs. placebo","400 mg TID, mITT, baseline IgA ≥median 2190 mg/L",0.08
same,"AQLQ global score change from baseline at Week 12, LS Mean Diff vs. placebo","400 mg TID, mITT, baseline IgE <100 IU/mL",0.46
same,"AQLQ global score change from baseline at Week 12, LS Mean Diff vs. placebo","400 mg TID, mITT, baseline IgE <median 121.85 IU/mL",0.60
same,"AQLQ global score change from baseline at Week 12, LS Mean Diff vs. placebo","400 mg TID, mITT, baseline IgE ≥100 IU/mL",0.16
same,"AQLQ global score change from baseline at Week 12, LS Mean Diff vs. placebo","400 mg TID, mITT, baseline IgE ≥median 121.85 IU/mL",−0.02
same,"AQLQ global score change from baseline at Week 12, LS Mean Diff vs. placebo","400 mg TID, mITT, baseline blood eosinophil level 1 <0.15 10^9/L",0.07
same,"AQLQ global score change from baseline at Week 12, LS Mean Diff vs. placebo","400 mg TID, mITT, baseline blood eosinophil level 1 ≥0.15-<0.3 10^9/L",0.32
same,"AQLQ global score change from baseline at Week 12, LS Mean Diff vs. placebo","400 mg TID, mITT, baseline blood eosinophil level 1 ≥0.3 10^9/L",0.70
same,"AQLQ global score change from baseline at Week 12, LS Mean Diff vs. placebo","400 mg TID, mITT, baseline blood eosinophil level 2 <0.3 10^9/L",0.17
same,"AQLQ global score change from baseline at Week 12, LS Mean Diff vs. placebo","400 mg TID, mITT, baseline blood eosinophil level 2 ≥0.3 10^9/L",0.70
same,"AQLQ global score change from baseline at Week 12, LS Mean Diff vs. placebo","400 mg TID, mITT, baseline percent predicted FEV1 <77%",0.42
same,"AQLQ global score change from baseline at Week 12, LS Mean Diff vs. placebo","400 mg TID, mITT, baseline percent predicted FEV1 <80%",0.35
same,"AQLQ global score change from baseline at Week 12, LS Mean Diff vs. placebo","400 mg TID, mITT, baseline percent predicted FEV1 ≥77%",0.16
same,"AQLQ global score change from baseline at Week 12, LS Mean Diff vs. placebo","400 mg TID, mITT, baseline percent predicted FEV1 ≥80%",0.27
same,"AQLQ global score change from baseline at Week 12, LS Mean Diff vs. placebo","400 mg TID, mITT, baseline pre-bronchodilator FEV1 <2.1955 L",0.28
same,"AQLQ global score change from baseline at Week 12, LS Mean Diff vs. placebo","400 mg TID, mITT, baseline pre-bronchodilator FEV1 ≥2.1955 L",0.27
same,"AQLQ global score change from baseline at Week 12, LS Mean Diff vs. placebo","400 mg TID, mITT, baseline weight <60 kg",−0.08
same,"AQLQ global score change from baseline at Week 12, LS Mean Diff vs. placebo","400 mg TID, mITT, baseline weight ≥60-<90 kg",0.41
same,"AQLQ global score change from baseline at Week 12, LS Mean Diff vs. placebo","400 mg TID, mITT, baseline weight ≥90 kg",0.17
same,"AQLQ global score change from baseline at Week 12, LS Mean Diff vs. placebo","400 mg TID, mITT, female",0.32
same,"AQLQ global score change from baseline at Week 12, LS Mean Diff vs. placebo","400 mg TID, mITT, former smokers",−0.02
same,"AQLQ global score change from baseline at Week 12, LS Mean Diff vs. placebo","400 mg TID, mITT, low EOS (<0.15) and low FeNO (<25)",0.10
same,"AQLQ global score change from baseline at Week 12, LS Mean Diff vs. placebo","400 mg TID, mITT, male",0.15
same,"AQLQ global score change from baseline at Week 12, LS Mean Diff vs. placebo","400 mg TID, mITT, never smokers",0.34
same,"AQLQ global score non-responders at Week 12, number",[1],24
same,"AQLQ global score non-responders at Week 12, percentage",[1],(45.3) (22/2)
same,participants with AQLQ improvement of at least 0.5 from baseline at Week 12,"400 mg TID, placebo 40.3%, p=0.0456",54.7%
same,"AQLQ(S) Activity limitation score, Mean","Week 4, 400 mg BID, mITT",5.48
same,"AQLQ(S) Activity limitation score, Median","Week 4, 400 mg BID, mITT",5.55
same,"AQLQ(S) Activity limitation score, change from baseline, LS Mean","Week 4, 400 mg BID, mITT",0.72
same,"AQLQ(S) Activity limitation score, change from baseline, Mean","Week 4, 400 mg BID, mITT",0.73
same,"AQLQ(S) Activity limitation score, change from baseline, Median","Week 4, 400 mg BID, mITT",0.55
same,"AQLQ(S) Emotional function score, Mean","Week 4, 400 mg BID, mITT",5.85
same,"AQLQ(S) Emotional function score, Median","Week 4, 400 mg BID, mITT",6.40
same,"AQLQ(S) Emotional function score, change from baseline, LS Mean","Week 4, 400 mg BID, mITT",0.77
same,"AQLQ(S) Emotional function score, change from baseline, Mean","Week 4, 400 mg BID, mITT",0.61
same,"AQLQ(S) Emotional function score, change from baseline, Median","Week 4, 400 mg BID, mITT",0.40
same,"AQLQ(S) Environmental stimuli score, Mean","Week 4, 400 mg BID, mITT",5.13
same,"AQLQ(S) Environmental stimuli score, change from baseline, LS Mean","Week 4, 400 mg BID, mITT",0.60
same,"AQLQ(S) Environmental stimuli score, change from baseline, Mean","Week 4, 400 mg BID, mITT",0.67
same,"AQLQ(S) Environmental stimuli score, change from baseline, Median","Week 4, 400 mg BID, mITT",0.50
same,"AQLQ(S) Global score, Mean","Week 4, 400 mg BID, mITT",5.63
same,"AQLQ(S) Global score, Median","Week 4, 400 mg BID, mITT",5.69
same,"AQLQ(S) Global score, change from baseline, LS Mean","Week 4, 400 mg BID, mITT",0.80
same,"AQLQ(S) Global score, change from baseline, Mean","Week 4, 400 mg BID, mITT",0.73
same,"AQLQ(S) Global score, change from baseline, Median","Week 4, 400 mg BID, mITT",0.69
same,"AQLQ(S) Symptoms score, Mean","Week 4, 400 mg BID, mITT",5.83
same,"AQLQ(S) Symptoms score, Median","Week 4, 400 mg BID, mITT",6.00
same,"AQLQ(S) Symptoms score, change from baseline, LS Mean","Week 4, 400 mg BID, mITT",0.92
same,"AQLQ(S) Symptoms score, change from baseline, Mean","Week 4, 400 mg BID, mITT",0.80
same,"AQLQ(S) Symptoms score, change from baseline, Median","Week 4, 400 mg BID, mITT",0.75
same,"AQLQ(S) Environmental stimuli score, change from baseline, LS Mean Diff vs. placebo","Week 4, 400 mg BID, mITT, 95% CI 0.02, 1.49",0.76
same,"AQLQ(S) Activity limitation score, change from baseline, LS Mean Diff vs. placebo","Week 4, 400 mg BID, mITT, 95% CI 0.26, 1.24",0.75
same,"AQLQ(S) Emotional function score, change from baseline, LS Mean Diff vs. placebo","Week 4, 400 mg BID, mITT, 95% CI 0.30, 1.74",1.02
same,"AQLQ(S) Global score, change from baseline, LS Mean Diff vs. placebo","Week 4, 400 mg BID, mITT, 95% CI 0.34, 1.34",0.84
same,"AQLQ(S) Symptoms score, change from baseline, LS Mean Diff vs. placebo","Week 4, 400 mg BID, mITT, 95% CI 0.41, 1.32",0.86
